Earlier results as cited in patent US20100209495A1, “GRANULATES, PROCESS FOR PREPARING THEM AND PHARMACEUTICAL PRODUCTS CONTAINING THEM” (Mylan Laboratories, Inc., priority 2008, published 2010).

Settings: at 37° C.

water solubility: 5 mg/1000 ml
Compound: CC(O)(CS(=O)(=O)c1ccc(F)cc1)C(=O)Nc1ccc(C#N)c(C(F)(F)F)c1 (stereo not shown) [bicalutamide, N-[4-cyano-3-(trifluoromethyl)phenyl]-3-(4-fluorophenyl) sulfonyl-2-hydroxy-2-methyl-propanamide]
